According to ChEMBL document CHEMBL5331085 (Eur J Med Chem, 2023):
Values after ≈ are worked out from the molar mass of the structure shown. Active and inactive are the calls of the source. No cut-off for these calls is given here. Positions of bridges follow the written chain, without caps; N, C: chain ends. Non-standard residues stand in square brackets, D forms with d. Residues, ends and D or L forms follow the SMILES beside them. *: point of attachment. Ileψ(thiazoline)Cys = CC[C@H](C)[C@H](N)C1=N[C@H](C(=O)*)CS1; dOrn = NCCC[C@@H](N)C(=O)O

Key:
[1] = Hemolytic activity in sheep erythrocytes incubated for 1 hr by absorbance based analysis; format: toxicity, cell-based, Ovis aries, Erythrocyte; conditions: sheep erythrocytes
Enterococcus faecium = assay: Antimicrobial activity against Enterococcus faecium ATCC 29212 incubated for 16 to 20 hrs by CLSI based broth dilution method; format: functional; conditions: Enterococcus faecium, ATCC 29212, time 16-20 hrs; read-out: MIC
[2] = system: Stenotrophomonas maltophilia; assay: Antimicrobial activity against Stenotrophomonas maltophilia ATCC 17808 incubated for 16 to 20 hrs by CLSI based broth dilution method; format: functional; conditions: Stenotrophomonas maltophilia, ATCC 17808; time 16-20 hrs; read-out: MIC
Escherichia coli = assay: Antimicrobial activity against Escherichia coli ATCC 25922 incubated for 16 to 20 hrs by CLSI based broth dilution method; format: functional; conditions: Escherichia coli, ATCC 25922; time 16-20 hrs; read-out: MIC
Staphylococcus aureus [3] = assay: Antimicrobial activity against Staphylococcus aureus ATCC 29213 incubated for 16 to 20 hrs by CLSI based broth dilution method; format: functional; conditions: Staphylococcus aureus, ATCC 29213; time 16-20 hrs; read-out: MIC
Staphylococcus aureus [4] = assay: Induction of drug resistance in Staphylococcus aureus ATCC 29213 at 0.1 times MIC measured after 20 passages; format: functional
Staphylococcus aureus [5] = assay: Antimicrobial activity against methicillin-resistant Staphylococcus aureus incubated for 16 to 20 hrs by CLSI based broth dilution method; format: functional; conditions: time 16-20 hrs
Staphylococcus aureus [6] = assay: Antimicrobial activity against methicillin-resistant Staphylococcus aureus infected in Kunming female mouse assessed as reduction in bacterial load in skin administered at labeled position and measured after 24 hrs; format: functional, organism-based; conditions: dose 5-10 mg/kg/day
Staphylococcus aureus [7] = assay: Antibacterial activity against Staphylococcus aureus ATCC 29213 assessed as inhibition of bacterial growth at 0.5 ug/ml incubated for 16 to 18 hrs in presence of genomic DNA at 0.125 to 4 ug/ml by microplate reader analysis; format: functional, organism-based; conditions: dose 0.5 µg/ml, time 16-18 hrs
Staphylococcus aureus [8] = assay: Antimicrobial activity against Staphylococcus aureus; format: functional

Compound: CCCCCCCC[N+](C)(C)CCCOc1ccc(-c2ccc(OCCC[N+](C)(C)CCCCCCCC)cc2)cc1.[Br-].[Br-]
- HC50 at 1 h [1]: 83 µg/mL
- MIC (Enterococcus faecium): 0.5 µg/mL
- MIC [2]: 2 µg/mL
- MIC (Escherichia coli): 1 µg/mL
- MIC (Staphylococcus aureus [3]): 1 µg/mL

Compound: CCCCCCCCCC[N+](C)(C)CCCOc1ccc(-c2ccc(OCCC[N+](C)(C)CCCCCCCCCC)cc2)cc1.[Br-].[Br-]
- HC50 at 1 h [1]: 18 µg/mL
- MIC (Enterococcus faecium): 0.5 µg/mL
- MIC [2]: 2 µg/mL
- MIC (Escherichia coli): 2 µg/mL
- MIC (Staphylococcus aureus [3]): 1 µg/mL

Compound: C[C@H]1COc2c(N3CCN(C)CC3)c(F)cc3c(=O)c(C(=O)O)cn1c23
- Activity (Staphylococcus aureus [4]): Active

Compound: CCCCCCCCCCCC[N+](C)(C)CCCOc1ccccc1-c1ccccc1OCCC[N+](C)(C)CCCCCCCCCCCC.[Br-].[Br-]
- HC50 at 1 h [1]: 12 µg/mL
- MIC (Enterococcus faecium): 4 µg/mL
- MIC [2]: 32 µg/mL
- MIC (Escherichia coli): 32 µg/mL
- MIC (Staphylococcus aureus [3]): 16 µg/mL

Compound: CC1(C)S[C@@H]2[C@H](NC(=O)[C@H](N)c3ccccc3)C(=O)N2[C@H]1C(=O)O
- Activity (Staphylococcus aureus [4]): Active

Compound: CO[C@H]1/C=C/O[C@@]2(C)Oc3c(C)c(O)c4c(O)c(c(/C=N/N5CCN(C)CC5)c(O)c4c3C2=O)NC(=O)/C(C)=C\C=C\[C@H](C)[C@H](O)[C@@H](C)[C@@H](O)[C@@H](C)[C@H](OC(C)=O)[C@@H]1C [RIFAMPIN]
- MIC90 (Staphylococcus aureus [5]): 128 µg/mL (≈ 156 µM)

Compound: CCCCCC[N+](C)(C)CCCOc1ccc(-c2ccc(OCCC[N+](C)(C)CCCCCC)cc2)cc1.[Br-].[Br-]
- HC50 at 1 h [1]: 487 µg/mL
- MIC (Enterococcus faecium): 1 µg/mL
- MIC [2]: 1 µg/mL
- MIC (Escherichia coli): 2 µg/mL
- MIC (Staphylococcus aureus [3]): 2 µg/mL

Compound: GENTAMICIN
- MIC90 (Staphylococcus aureus [5]): 2 µg/mL

Compound: CN[C@H](CC(C)C)C(=O)N[C@H]1C(=O)N[C@@H](CC(N)=O)C(=O)N[C@H]2C(=O)N[C@H]3C(=O)N[C@H](C(=O)N[C@H](C(=O)O)c4cc(O)cc(O)c4-c4cc3ccc4O)[C@H](O)c3ccc(c(Cl)c3)Oc3cc2cc(c3O[C@@H]2O[C@H](CO)[C@@H](O)[C@H](O)[C@H]2O[C@H]2C[C@](C)(N)[C@H](O)[C@H](C)O2)Oc2ccc(cc2Cl)[C@H]1O [VANCOMYCIN]
- HC50 at 1 h [1]: > 1280 µg/mL
- MIC90 (Staphylococcus aureus [5]): 2 µg/mL (≈ 1.38 µM)
- Activity (Staphylococcus aureus [6]): Dose-Dependent Effect

Compound: CC[C@H](C)[C@H](N)C1=N[C@H](C(=O)N[C@@H](CC(C)C)C(=O)N[C@H](CCC(=O)O)C(=O)N[C@H](C(=O)N[C@H]2CCCCNC(=O)[C@H](CC(N)=O)NC(=O)[C@@H](CC(=O)O)NC(=O)[C@H](Cc3cnc[nH]3)NC(=O)[C@@H](Cc3ccccc3)NC(=O)[C@H]([C@@H](C)CC)NC(=O)[C@@H](CCCN)NC2=O)[C@@H](C)CC)CS1 [BACITRACIN] ({Ileψ(thiazoline)Cys}-L[dE]IK[dOrn]I[dF]H[dD]N; lactam 4-C)
- MIC (Enterococcus faecium): 16 µg/mL (≈ 11.2 µM)
- MIC (Escherichia coli): > 128 µg/mL
- MIC (Staphylococcus aureus [3]): 16 µg/mL (≈ 11.2 µM)

Compound: O=C(O)c1cn(C2CC2)c2cc(N3CCNCC3)c(F)cc2c1=O
- Activity (Staphylococcus aureus [4]): Active

Compound: C[C@@H](O)[C@H]1C(=O)N2C(C(=O)O)=C(S[C@@H]3CN[C@H](C(=O)N(C)C)C3)[C@H](C)[C@H]12 [MEROPENEM]
- HC50 at 1 h [1]: > 1280 µg/mL
- MIC (Escherichia coli): 0.063 µg/mL (≈ 0.164 µM)

Compound: COLISTIN
- Activity (Staphylococcus aureus [7]): Active

Compound: CCCCCCN(CCCOc1ccccc1-c1ccccc1OCCCN(CCCCCC)C(=O)[C@@H](N)CCCCN)C(=O)[C@@H](N)CCCCN.Cl.Cl.Cl.Cl
- MIC (Staphylococcus aureus [8]): 0.5 µg/mL
